Assays:
Type in all cases: cell-based, human
DYRKIA = test: NFAT1 nuclear translocation as readout for DYRKIA inhibition
Procedure: Immunocytochemical staining. The Immunofluorescent staining was performed as previously described in the Flow cytometry section. The additional primary antibodies for immunocytochemical staining were used: rabbit polyclonal anti-NFAT1 (1:500, ab244310, Abcam, Cambridge, MA, USA), mouse monoclonal anti-E-cadherin (1:500, Abcam) and rabbit polyclonal anti-connexin 36 (1:500, Abcam). Secondary antibodies were stained using previously described antibodies noted within the flow cytometry method. Cells were then counter-stained with 4′, 6-Diamidino-2-phenylindole (DAPI, MilliporeSigma, Burlington, MA, USA) or 2,5′-Bi-1H-benzimidazole (Hoechst, Invitrogen). HTS imaging was performed using the Opera Phenix™ High Content Screening System (PerkinElmer, Waltham, MA, USA). Fluorescent and bright-field imaging were performed using the Eclipse TE2000-U (Nikon, Tokyo, Japan). Confocal imaging and z-stack 3D reconstruction were performed using LSM 800 with Airyscan (Zeiss, Oberkochen, Germany). Analysis was performed using ImageJ (NIH) and Adobe Photoshop (Adobe, San Jose, CA, USA) software.

SC β cells [1] = test: Proliferation of SC β cells in DP (EdU or Ki67, flow cytometry)
Procedure: Applicant then compared ZnPD6 and harmine over the range of 0.625 to 20 μM based on the percentage of proliferating mature SC β cells using the c-peptide/EdU co-positive metric, wherein EdU is a proliferation marker that identifies cells undergoing DNA replication in the S phase (FIG. 5D). […] Despite releasing the same drug following ZnPD cleavage, Applicant were interested in determining what caused the difference in cytotoxicity and proliferation between ZnPD6 and unmodified harmine. Applicant then examined harmine and ZnPD6 at their optimal concentrations for proliferation, 10 μM and 20 μM, respectively.
Compound treatment. Cells were seeded into the DP and incubated with their respective media as outlined in the section above and allowed to settle for 24 hours (day 1). For compound treatment (ZnPDs and small molecule cargos), the media were replaced with new media supplemented with prodrug at different concentrations on day 3 and day 6 for a total treatment of 6 days. Cell analyses was performed after 7 days in culture. For targeting study with ZnPD4, cells were treated with ZnPD4 for 2 hours. […] For the dose-cytotoxicity study, cell viability was measured by AlamarBlue™ assay following the manufacturer's protocol (Invitrogen, Carlsbad, CA, USA).
Flow cytometry. […] Cells were analyzed using a BD FACSAria™ II flow cytometer (BD Biosciences, Franklin Lakes, NJ, USA). […]

SC β cells [2] = test: Dose-cytotoxicity study, AlamarBlue assay; conditions: 0.032~500 μM
Procedure: Compound treatment. […] For compound treatment (ZnPDs and small molecule cargos), the media were replaced with new media supplemented with prodrug at different concentrations on day 3 and day 6 for a total treatment of 6 days. Cell analyses was performed after 7 days in culture. […] For the dose-cytotoxicity study, cell viability was measured by AlamarBlue™ assay following the manufacturer's protocol (Invitrogen, Carlsbad, CA, USA).
Cell viability test. To determine the viability of SC β-cells in the DP and SF, a Live/Dead Viability and Cytotoxicity Assay Kit (AlamarBlue™, Invitrogen) were used according to the manufacturer's instructions.

Notch signaling [3] = test: Notch inhibition in pancreatic progenitor cells in Disque platform (DP), qRT-PCR gene expression; conditions: 10 μM, 4 days, cells cultured in DP
From the text: (§1) Next, Applicant further examined whether other junction signaling pathways critical for β-cell differentiation, such as the Notch signaling pathway, could be supported in the DP, as Notch inhibition in pancreatic progenitor cells is known to promote differentiation into the endocrine lineage and β-cell production. To measure this in the DP, Applicant supplemented the differentiation protocol of pancreatic progenitor cells with Notch inhibitor (NI) [γ-secretase inhibitor, N—[N-(3,5-Difluorophenacetyl)-L-alanyl]-S-phenylglycine t-butyl ester (DAPT) (10 μM)] and examined the cells at the end of pancreatic progenitor cells (stage 4 day 5 (S4d5)) by immunocytochemistry and gene expression analysis (FIGS. 8A-8D). […]
(§2) Compound treatment. […] For the dose-cytotoxicity study, cell viability was measured by AlamarBlue™ assay following the manufacturer's protocol (Invitrogen, Carlsbad, CA, USA).
(§3) Gene Expression Analysis. […] The RNA concentration was determined by measuring absorbance at 260 nm using a spectrophotometer. […] The profiles of gene expression in SC β-cells were quantified for each target (human E-cad, CX-36, ZnT8, Pdx-1, Nkx6.1, Insulin, and glyceraldehyde 3-phosphate dehydrogenase (GAPDH), QuantiTect primary assay). The expression level of target genes was determined by the comparative Ct method, whereby the target is normalized to the endogenous reference (GAPDH) 40. […]

Notch signaling [4] = test: Notch inhibition in 2D culture, Hes1 gene expression; conditions: 10 μM
From the text: as §1, §2, §3

[5] = system: pancreatic progenitor cells; test: Notch inhibition in DP, immunocytochemical staining for Pdx-1 and Nkx6.1; conditions: 10 μM, S4d5
From the text: Next, Applicant further examined whether other junction signaling pathways critical for β-cell differentiation, such as the Notch signaling pathway, could be supported in the DP, as Notch inhibition in pancreatic progenitor cells is known to promote differentiation into the endocrine lineage and β-cell production. To measure this in the DP, Applicant supplemented the differentiation protocol of pancreatic progenitor cells with Notch inhibitor (NI) [γ-secretase inhibitor, N—[N-(3,5-Difluorophenacetyl)-L-alanyl]-S-phenylglycine t-butyl ester (DAPT) (10 μM)] and examined the cells at the end of pancreatic progenitor cells (stage 4 day 5 (S4d5)) by immunocytochemistry and gene expression analysis (FIGS. 8A-8D). […] Upon establishing the differentiation capabilities of the DP, Applicant then reasoned whether differentiated SC β cells also elicited proper insulin secretion functionality. The DP also supported insulin secretion from SC β cells in response to glucose stimulation, and similar secretion indices were noted between DP and SF (FIG. 3J).
Compound treatment. Cells were seeded into the DP and incubated with their respective media as outlined in the section above and allowed to settle for 24 hours (day 1). […] For the dose-cytotoxicity study, cell viability was measured by AlamarBlue™ assay following the manufacturer's protocol (Invitrogen, Carlsbad, CA, USA). […]

Compound | NFAT1 nuclear translocation over time, in words (DYRKIA; FIG. 5H) | NFAT1 nuclear translocation (DYRKIA; at 24 hours) [%] | NFAT1 nuclear translocation (DYRKIA; value before the decrease) [%] | population of proliferating monohormonal SC β cells (C-peptide+GCG-EdU+) (SC β cells [1]; DP, flow cytometry, compared to DMSO control or negative control) | optimal concentration for proliferation (SC β cells [1]; SC β cells in DP) [µM] | concentration above which a cytotoxic effect is seen (SC β cells [2]) | increase in Pdx-1 expression (Notch signaling [3]; S4d5, vs control) [%] | decrease in hairy and enhancer of split-1 (Hes1) expression (Notch signaling [3]; vs control) [%] | Hes1 expression response to Notch inhibition (Notch signaling [4]) | Pdx-1-positive progenitor cells after Notch inhibition [5]
COc1ccc2c(c1)[nH]c1c(C)nccc12 [harmine] | decreased NFAT1 nuclear translocation after 4 hours | 15 | 26 | statistically significant increase | 10 | over 10 μM |  |  |  | 
C[C@H](NC(=O)Cc1cc(F)cc(F)c1)C(=O)N[C@H](C(=O)OC(C)(C)C)c1ccccc1 [DAPT, N—[N-(3,5-Difluorophenacetyl)-L-alanyl]-S-phenylglycine t-butyl ester] |  |  |  |  |  |  | 80 | 71 | not responsive | significantly increased

From patent US12473537B2, “Three-dimensional cell culture, devices, and use thereof” (THE BROAD INSTITUTE, INC., priority 2020, dated 2025)
